# From ChEMBL document CHEMBL4673348, “Penipyranicins A-C: Antibacterial Methylpyran Polyketides from a Hydrothermal Spring Sediment Penicillium sp” (2020)
# Experiments:
# Format in all cases: functional
# Pseudomonas aeruginosa = assay: Antibacterial activity against Pseudomonas aeruginosa NR-117678.1 assessed as reduction in cell viability after 24 hrs by microdilution method
# Bacillus licheniformis = assay: Antibacterial activity against Bacillus licheniformis KX785171.1 assessed as reduction in cell viability after 24 hrs by microdilution method
# Enterobacter hormaechei = assay: Antibacterial activity against Enterobacter xiangfangensis CP017183.1 assessed as reduction in cell viability after 24 hrs by microdilution method; conditions: subsp. xiangfangensis CP017183.1
# [1] = Antibacterial activity against Escherichia fergusonii CU928158.2 assessed as reduction in cell viability after 24 hrs by microdilution method
# Staphylococcus aureus = assay: Antibacterial activity against Staphylococcus aureus CP011526.1 assessed as reduction in cell viability after 24 hrs by microdilution method
SMILES,MIC (Pseudomonas aeruginosa),MIC (Bacillus licheniformis),MIC (Enterobacter hormaechei),MIC [1],MIC (Staphylococcus aureus)
COc1cc(O)cc(C2=COC(C(=O)O)=C[C@H]2C)c1,18.4 µg/mL,21.6 µg/mL,15.8 µg/mL,13.2 µg/mL,> 25 µg/mL
COc1cc(O)c2c3c(c(C)cc(C(=O)O)c13)[C@H](OC)OC2=O,4.7 µg/mL,3.8 µg/mL,7.8 µg/mL,11.2 µg/mL,6.3 µg/mL
COc1cc(O)c(C(=O)O)c(C2=COC(C(=O)O)=C[C@H]2C)c1,5.2 µg/mL,9.7 µg/mL,3.7 µg/mL,7.8 µg/mL,10.3 µg/mL
COc1cc(O)c(C(=O)O)c(C2=COC(C(=O)O)=C[C@H]2C)c1C(=O)O,1.4 µg/mL,8.4 µg/mL,0.9 µg/mL,2.7 µg/mL,6.8 µg/mL
NCC[C@H](O)C(=O)N[C@@H]1C[C@H](N)[C@@H](O[C@H]2O[C@H](CN)[C@@H](O)[C@H](O)[C@H]2O)[C@H](O)[C@H]1O[C@H]1O[C@H](CO)[C@@H](O)[C@H](N)[C@H]1O [AMIKACIN],0.8 µg/mL,0.3 µg/mL,0.2 µg/mL,0.4 µg/mL,0.5 µg/mL
O=c1cc(CO)occ1O [KOJIC ACID],2.9 µg/mL,14.8 µg/mL,1.6 µg/mL,3.5 µg/mL,9.5 µg/mL
